Ends that are not written are not given here.
Experiments:
[1] = In vitro stability in the cerebrospinal fluid; assay type: in vitro ADME; settings: cerebrospinal fluid (CSF), rat CSF, 37 °C, LC/MS without treatment, three experiments
Protocol: (§1) After the anesthetization of rats with an i.p. application of the anesthetic mixture, the cerebrospinal fluid (CSF) was collected by cisternal puncture, followed by the collection of whole blood from the polyethylene cannula inserted into the right femoral artery. The blood was heparinized and centrifuged at 15,000 rpm for 10 min at 4 °C, and the supernatant was collected as plasma.
(§2) ANA-TA9 was dissolved in PBS at a concentration of 0.1 mg/mL or 1 mg/mL. Immediately before the incubation, 5 μL or 10 μL of the ANA-TA9 solution was added to 45 μL or 90 μL of CSF or plasma, respectively. Similarly, 10 μL of the ANA-TA9 solution was added to 90 μL of whole blood. At predetermined times after the incubation at 37 °C, the samples were cooled by placing them on ice. Methanol (1 mL) was added to the plasma and whole blood for deproteinization. The mixtures were then vortexed and centrifuged at 15,000 rpm for 5 min at 4 °C. […] The concentrations of ANA-TA9 in the plasma and whole blood were measured by LC/MS. The ANA-TA9 concentrations were measured in the CSF samples by LC/MS without any treatments.
(§3) Chromatographic separation was performed using a C18 analytical column (TSKgel ODS 100V, 3 μm, 2.0 mm × 100 mm; TOSOH, Tokyo, Japan). […] ANA-TA9 eluting from the column was detected with mass spectrometry under the positive mode. […] The calibration curves of ANA-TA9 in the plasma and the brain were determined.

[2] = In vitro stability in the plasma; assay type: in vitro ADME; settings: rat plasma, 10 μL ANA-TA9 PBS solution (0.1 mg/mL or 1 mg/mL) added to 90 μL plasma, 37 °C, methanol deproteinization, LC/MS, three experiments
Protocol: as §1, §2, §3

[3] = In vitro stability in the whole blood; assay type: in vitro ADME, rat
Protocol: as §1
ANA-TA9 was dissolved in PBS at a concentration of 0.1 mg/mL or 1 mg/mL. Immediately before the incubation, 5 μL or 10 μL of the ANA-TA9 solution was added to 45 μL or 90 μL of CSF or plasma, respectively. Similarly, 10 μL of the ANA-TA9 solution was added to 90 μL of whole blood. At predetermined times after the incubation at 37 °C, the samples were cooled by placing them on ice. Methanol (1 mL) was added to the plasma and whole blood for deproteinization. The mixtures were then vortexed and centrifuged at 15,000 rpm for 5 min at 4 °C. The supernatant was transferred to tubes and evaporated to dryness. The residue was reconstituted with 100 μL of the mobile phase of LC/MS mentioned below. The concentrations of ANA-TA9 in the plasma and whole blood were measured by LC/MS. The ANA-TA9 concentrations were measured in the CSF samples by LC/MS without any treatments.
Chromatographic separation was performed using a C18 analytical column (TSKgel ODS 100V, 3 μm, 2.0 mm × 100 mm; TOSOH, Tokyo, Japan). The mobile phase was acetonitrile/0.1% acetic acid (10/90), and the flow rate was 0.2 mL/min. ANA-TA9 eluting from the column was detected with mass spectrometry under the positive mode. Nitrogen gas was used for nebulization at a flow rate of 1.5 L/min. Other conditions (temperature and voltage) were set as the default. The calibration curves of ANA-TA9 in the plasma and the brain were determined.

- remaining at 0.5 h ([1]; 5 μL ANA-TA9 PBS solution (0.1 mg/mL or 1 mg/mL) added to 45 μL CSF, 30 min, read-out: CSF concentration remaining at 30 min after the start of the incubation): 74%
- remaining at 2 h ([1]; 5 μL ANA-TA9 PBS solution added to 45 μL CSF, 2 h, read-out: CSF concentration remaining at 2 h after the start of the incubation): 46%
- concentration of ANA-TA9 in the plasma at 5 min after the start of the incubation [2]: 20000 ng/mL
- initial concentration in the whole blood ([3]; rat whole blood (heparinized), 10 μL ANA-TA9 solution added to 90 μL, 37 °C, time 0, LC/MS, three experiments): 80 µg/mL
- concentration of ANA-TA9 in the whole blood 5 min after the start of the incubation ([3]; rat whole blood, 10 μL ANA-TA9 solution added to 90 μL, 37 °C, 5 min, LC/MS, three experiments): 20000 ng/mL
- initial concentration in the whole blood, % of the expected value ([3]; rat whole blood, time 0, LC/MS): 80%
Sequence: SKGQAYRMI [ANA-TA9]
